Results from PubChem BioAssay (NCI).
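Method: 48-hour compound exposure of cells in 96-well plates, five concentrations, linear interpolation of endpoints. The concentration for full growth arrest is given as TGI.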 Where a SMILES comes first, the peptide text is derived from it. [ ]: non-standard residue; d: D form. The star is where a group is joined. ξ: configuration not given here. Propanoyl(3-(4-MeO-Ph)) = COc1ccc(CCC(=O)*)cc1; Thr(3ξ) = CC(O)[C@H](N)C(=O)O; dNMeL = CN[C@H](CC(C)C)C(=O)O; OBn = c1ccc(CO*)cc1; ξLac = CC(O)C(=O)O

Key:
Test in all cases: NCI-60 cell line screen, 48 h
[1] = tested on: RXF 393 renal
[2] = tested on: NCI-H226 lung
[3] = tested on: HT29 colon
[4] = tested on: HCC-2998 colon
[5] = tested on: CCRF-CEM leukemia
[6] = tested on: DU-145 prostate
[7] = tested on: K-562 leukemia
[8] = tested on: SF-295 CNS
[9] = tested on: SW-620 colon
[10] = tested on: OVCAR-5 ovarian
[11] = tested on: A498 renal
[12] = tested on: U251 CNS
[13] = tested on: CAKI-1 renal
[14] = tested on: OVCAR-3 ovarian
[15] = tested on: UACC-257 melanoma
[16] = tested on: M14 melanoma
[17] = tested on: SF-539 CNS
[18] = tested on: HOP-92 NSCLC

Structure (SMILES) | TGI [1] | TGI [2] | TGI [3] | TGI [4] | TGI [5] | TGI [6] | TGI [7] | TGI [8] | TGI [9] | TGI [10] | TGI [11] | TGI [12] | TGI [13] | TGI [14] | TGI [15] | TGI [16] | TGI [17] | TGI [18]
CN(C)CCNC1=CC(=O)c2c(O)ccc(O)c2C1=O | 31.4 µM | 39.8 µM | 8.75 µM | 13.5 µM | 11.3 µM | 26.7 µM | > 100 µM | 24.3 µM | 10.1 µM | 27.5 µM | 28 µM | 24.4 µM | 27.3 µM | 5.67 µM | 5.61 µM | 12.4 µM | 20.6 µM | 27.8 µM
Cc1ccc([N+](=O)[O-])cc1S(=O)(=O)Nc1ccc(C2=NNC(c3cccs3)C2)cc1 (stereo not drawn) | 38.7 µM | > 100 µM | > 100 µM | > 100 µM | > 100 µM | > 100 µM | > 100 µM | 63.9 µM | > 100 µM | > 100 µM | 93.1 µM |  | > 100 µM | 43.2 µM | > 100 µM | 68.8 µM | > 100 µM | > 100 µM
COc1ccc(C2SCC(=O)N2NC(=O)C(C)Oc2ccccc2Cl)cc1 (stereo not drawn) | > 100 µM | > 100 µM | > 100 µM | > 100 µM | 79.6 µM | > 100 µM | > 100 µM | > 100 µM | > 100 µM | > 100 µM | 92.2 µM | > 100 µM | > 100 µM |  | > 100 µM | > 100 µM | > 100 µM | 77.4 µM
COc1ccc(CCC(=O)OC(C)[C@H](NC(=O)[C@@H](CC(C)C)N(C)C(=O)[C@@H]2CCCN2C(=O)C(C)O)C(=O)OCc2ccccc2)cc1 (stereo partly drawn) (H-[ξLac]P[dNMeL][Thr(3ξ)](Propanoyl(3-(4-MeO-Ph)))-OBn) | 44.7 µM | 98.3 µM | > 100 µM | > 100 µM | 68.9 µM | > 100 µM | 74.5 µM | > 100 µM | > 100 µM | > 100 µM | > 100 µM | > 100 µM | > 100 µM | 73.4 µM | 35.6 µM | 30.6 µM | 46.2 µM | 41.6 µM
Cc1ccc(/C=N/Nc2nncc3ccccc23)s1 | > 100 µM | > 100 µM | > 100 µM | > 100 µM | > 100 µM | > 31.6 µM | > 100 µM | 98.2 µM | > 100 µM | > 100 µM | > 100 µM | > 100 µM | > 100 µM | > 100 µM | > 100 µM | > 100 µM | > 100 µM | > 100 µM
CC(C)NC(=O)OCc1c(COC(=O)NC(C)C)c(-c2ccc[n+](COC(=O)C3CC3)c2)n2c1CCC2 | > 100 µM | > 100 µM | > 100 µM | > 100 µM | > 100 µM | > 100 µM | > 100 µM | > 100 µM | > 100 µM | > 100 µM | 88.1 µM | > 100 µM | 89 µM | > 100 µM | > 100 µM | > 100 µM | > 100 µM | > 100 µM
COc1ccc(C(C#N)NCCCCCCNC(C#N)c2ccc(OC)cc2)cc1 (stereo not drawn) | > 100 µM | > 100 µM | > 100 µM | > 100 µM | > 100 µM | > 100 µM | > 100 µM | > 100 µM | > 100 µM | > 100 µM | > 100 µM | > 100 µM | > 100 µM | > 100 µM | > 100 µM | > 100 µM | > 100 µM | > 100 µM
CC1=C(C(=O)Nc2ccccc2)C(c2ccc(C)o2)C(C#N)=C(SCc2ccccc2)N1 (stereo not drawn) | > 100 µM | > 100 µM | > 100 µM | > 100 µM | > 100 µM | > 100 µM | > 100 µM | > 100 µM | > 100 µM | > 100 µM | > 100 µM | > 100 µM | > 100 µM | > 100 µM | > 100 µM | > 100 µM | > 100 µM | > 66.4 µM
CCCC#CC(O)(C(=O)OC1CCN(C)CC1)C1CCCCC1 (stereo not drawn) | > 100 µM | > 100 µM | > 100 µM | > 100 µM | > 100 µM | > 100 µM | > 100 µM | > 100 µM | > 100 µM | > 100 µM | > 100 µM | > 100 µM | > 100 µM | > 100 µM | > 100 µM | > 100 µM | > 100 µM | > 100 µM
CCn1c(-c2ccc(C)cc2)cs/c1=N\C(P(=O)(O)O)P(=O)(O)O | > 100 µM | > 100 µM | > 100 µM | > 100 µM | > 100 µM | > 100 µM | > 100 µM | > 100 µM | > 100 µM | > 100 µM | > 100 µM | > 100 µM | > 100 µM | > 100 µM | > 100 µM | > 100 µM | > 100 µM | > 100 µM
